We go through 40 compounds from patent US12583858B2 (Genentech, Inc., priority 2015, dated 2026).

Broadly, the pEC50 is −log10 of the EC50, conventionally taken in molar units.

Structures are written as SMILES. pEC50: −log10 of the molar value. Where only a bound is given, the exact number is not on record here.

T1 sequence (P48775 whole entry): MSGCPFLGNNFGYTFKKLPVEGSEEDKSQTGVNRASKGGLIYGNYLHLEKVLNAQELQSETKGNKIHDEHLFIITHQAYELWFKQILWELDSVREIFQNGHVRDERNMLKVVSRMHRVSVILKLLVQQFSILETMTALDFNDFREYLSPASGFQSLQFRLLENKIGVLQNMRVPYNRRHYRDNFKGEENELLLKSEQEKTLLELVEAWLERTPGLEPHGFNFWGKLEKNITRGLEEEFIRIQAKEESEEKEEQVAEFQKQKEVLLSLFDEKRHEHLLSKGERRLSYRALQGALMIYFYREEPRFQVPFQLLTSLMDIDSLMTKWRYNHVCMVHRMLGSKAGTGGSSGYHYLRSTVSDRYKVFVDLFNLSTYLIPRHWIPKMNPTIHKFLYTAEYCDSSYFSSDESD

The test concerns the target T1, TDO2 (Homo sapiens, UniProt P48775).
T1 construct: decreased levels of NFK in SW48 cells (high TDO expressing cells)
Put plainly: TDO2 cell assay (NFK GreenScreen, SW48 cells). It is filed as cell-based. The note with it: SW48 cells (high TDO expressing), 200 uM tryptophan, 24 hours; Table 3; read-out: TDO2 Cell Fluor EC50.
For the compound `CC(=O)N1CCC(O)C(C2c3ccccc3-c3cncn32)C1` (single isomer, unassigned) [Example 12a], the pEC50 was 5.57.

In the case of `CC1(C)OCC(C2c3ccccc3-c3cncn32)C1O` (single isomer, unassigned) [Example 85d], the pEC50 is 6.18.

`N#CCN1CC[C@@H]([C@@H]2c3ccccc3-c3cncn32)[C@H](O)C1` (single isomer, unassigned) [Example 27d]: the pEC50 was 5.52. For `CCC(O)C1c2ccccc2-c2cncn21` (single isomer, unassigned) [Example 137a] the value was less than 4.60; for `O[C@@H]1c2cccn2CC[C@@H]1[C@@H]1c2ccccc2-c2cncn21` [Example 136b, (7R,8S)-7-((R)-5H-imidazo[5,1-a]isoindol-5-yl)-5,6,7,8-tetrahydroindolizin-8-ol], less than 4.60. For the compound `CC[C@H](O)[C@@H]1c2ccccc2-c2cncn21` [Example 137b, (S)-1-((S)-5H-imidazo[5,1-a]isoindol-5-yl)propan-1-ol], the negative logarithm of the EC50 (pEC50) is 5.10.

In the case of `O=S(=O)(C1CC1)N1CC[C@@H]([C@H]2c3ccccc3-c3cncn32)[C@H](O)C1` (single isomer, unassigned) [Example 77a], the negative-log EC50 (pEC50) was less than 4.60.

Turning to `CC1(C)CCC(C2c3ccccc3-c3cncn32)C1O` (single isomer, unassigned) [Example 23b], the pEC50 was 7.07.

In the case of `CC1(O)CCOCC1C1c2ccccc2-c2cncn21` (single isomer, unassigned) [Example 61d], the negative logarithm of the EC50 (pEC50) was 4.68.

Take `CCS(=O)(=O)N1CCC2(CC1)CC(C1c3ccccc3-c3cncn31)C2O` (single isomer, unassigned) [Example 114f]: the pEC50 was 6.04. In the case of `O[C@@H]1COCC[C@@H]1[C@@H]1c2ccccc2-c2cncn21` [Example 06e, (3S,4R)-4-((R)-5H-imidazo[5,1-a]isoindol-5-yl)tetrahydro-2H-pyran-3-ol], the pEC50 was less than 4.60.

On to `OC1CCCCCC1C1c2ccccc2-c2cncn21` (single isomer, unassigned) [Example 115a, 2-(5H-imidazo[5,1-a]isoindol-5-yl)cycloheptan-1-ol], for which the pEC50 is 4.85.

As to `OCC(O)C1c2ccccc2-c2cncn21` (single isomer, unassigned) [Example 49b, 1-(5H-imidazo[5,1-a]isoindol-5-yl)ethane-1,2-diol], the pEC50 was 4.71. For `O[C@H]1c2cccnc2CC[C@@H]1[C@@H]1c2ccc(F)cc2-c2cncn21` (single isomer, unassigned) [Example 169b] the value was 4.80. In the case of `OC1COCCC1C1c2c(Cl)cccc2-c2cncn21` (single isomer, unassigned) [Example 69-1c], the pEC50 is less than 4.60.

Regarding `OC1CCCC1C1c2ccccc2-c2cncn21` (single isomer, unassigned) [Example 02e], the pEC50 is 4.77. For `CS(=O)(=O)N1CC[C@@H]([C@@H]2c3ccccc3-c3cncn32)[C@H](O)C1` [Example 64a, (3S,4S)-4-((R)-5H-imidazo[5,1-a]isoindol-5-yl)-1-(methylsulfonyl)piperidin-3-ol] the value was less than 4.60; for `NC(=O)c1ccc2c(c1)C(O)C(C1c3ccccc3-c3cncn31)CC2` (single isomer, unassigned) [Example 122e], 7.05; for `OC1CCCCCC1C1c2ccccc2-c2cncn21` (single isomer, unassigned) [Example 115d, 2-(5H-imidazo[5,1-a]isoindol-5-yl)cycloheptan-1-ol], 7.00.

On to `CS(=O)(=O)N1CCC(C2c3ccccc3-c3cncn32)C(O)C1` (single isomer, unassigned) [Example 79b], for which the pEC50 is 5.28.

For `CS(=O)(=O)N1CCC(O)(C2c3ccccc3-c3cncn32)C1` (single isomer, unassigned) [Example 116b], the negative logarithm of the EC50 (pEC50) was 5.60. For `N#CC1(C(O)C2c3ccccc3-c3cncn32)CC1` (single isomer, unassigned) [Example 153b], the pEC50 is 4.96. The figure for `N#Cc1ccc2c(c1)[C@@H](O)[C@@H]([C@H]1c3ccccc3-c3cncn31)CC2` (stereo in doubt) [Example 113d, (7R,8S)-8-hydroxy-7-((S)-5H-imidazo[5,1-a]isoindol-5-yl)-5,6,7,8-tetrahydronaphthalene-2-carbonitrile] is 4.92. The figure for `CN(C)C(=O)c1ccc2c(c1)CCC(C1c3ccccc3-c3cncn31)C2O` (single isomer, unassigned) [Example 98d] is 5.02; for `NS(=O)(=O)N1CCC2(CCC(C3c4ccccc4-c4cncn43)C2O)CC1` (single isomer, unassigned) [Example 182c] it is 5.34; for `Nc1cc2n(n1)CCC(C1c3ccccc3-c3cncn31)C2O` [Example 161f, (4R,5S)-2-amino-5-((R)-5H-imidazo[5,1-a]isoindol-5-yl)-4,5,6,7-tetrahydropyrazolo[1,5-a]pyridin-4-ol] it is less than 4.60. With `CS(=O)(=O)c1ccc2c(c1)OCC(C1c3ccccc3-c3cncn31)C2O` (single isomer, unassigned) [Example 91b], the pEC50 is less than 4.60. Turning to `OC1CCCCC1C1c2ccc(F)cc2-c2cncn21` (single isomer, unassigned) [Example 25d], the pEC50 was 7.32. For `N#CCN1CCC(O)C(C2c3ccccc3-c3cncn32)C1` (single isomer, unassigned) [Example 58c], the pEC50 was 4.70. Take `N#CC1CCC(O)(C2c3ccccc3-c3cncn32)CC1` (single isomer, unassigned) [Example 145a]: the negative logarithm of the EC50 (pEC50) is 5.38.

With `O[C@H]1CC[C@@H]1[C@@H]1c2ccccc2-c2cncn21` [Example 01c, (1S,2R)-2-((R)-5H-imidazo[5,1-a]isoindol-5-yl)cyclobutan-1-ol], the pEC50 was less than 4.60. In the case of `Cn1ncc2c1CCC(C1c3ccccc3-c3cncn31)C2O` (single isomer, unassigned) [Example 93f], the pEC50 is 6.09. `OC1CC2(CC2)C1C1c2ccccc2-c2cncn21` (single isomer, unassigned) [Example 72h]: the pEC50 was 4.74.

For `OC1C(C2c3ccccc3-c3cncn32)CC12CCOCC2` (single isomer, unassigned) [Example 57h], the negative-log EC50 (pEC50) was less than 4.60. Turning to `OC1c2cccn2CCC1C1c2ccccc2-c2cncn21` (single isomer, unassigned) [Example 136c], the pEC50 is 5.17.

As for `N#Cc1ccc2c(c1)C(O)C(C1c3ccccc3-c3cncn31)CC2` (single isomer, unassigned) [Example 113b], the pEC50 is 5.30. The figure for `CCS(=O)(=O)N1CCC(O)C(C2c3ccccc3-c3cncn32)C1` (single isomer, unassigned) [Example 15d] is less than 4.60; for `CC(C)(C)OC(=O)N1CC2(CC(C3c4ccccc4-c4cncn43)C2O)C1` (single isomer, unassigned) [Example 41f, tert-butyl 7-hydroxy-6-(5H-imidazo[1,5-b]isoindol-5-yl)-2-azaspiro[3.3]heptane-2-carboxylate] it is 4.77; for `NS(=O)(=O)c1ccc2c(c1)CCC(C1c3ccccc3-c3cncn31)C2O` (single isomer, unassigned) [Example 100e] it is 5.89. The figure for `OC1CC2(CCC2)C1C1c2ccccc2-c2cncn21` (single isomer, unassigned) [Example 67c] is 5.96.
